These results are taken from patent US9475783B2, “Antimicrobial agents” (Rutgers, the State University of New Jersey, priority 2012, dated 2016).

In brackets after ≈: the same amount, converted by molar mass. Bounds are passed on as bounds.

This test concerns MSSA. The test is described as follows: Test A antibacterial assay, broth microdilution MIC. In kind it is cell-based. The settings on record: Staphylococcus aureus, growth read after 24 to 48 hours at OD 600 nm. As for the experimental part:
Test A. Antibacterial Assay. Antibacterial activity can be determined as per Clinical and Laboratory Standards Institute (CLSI) guidelines using a broth microdilution assay in which log-phase bacteria are grown at 37° C. in appropriate medium containing two-fold serial dilutions of a compound to yield final concentrations ranging from 256 to 0.06 μg/mL. For determination of minimal inhibitory concentration (MIC) values, bacterial growth is monitored after 24 to 48 hours by measuring optical density at 600 nm.

Compound `Cc1ccc(CN(C)CNC(=O)c2c(F)ccc(OCc3nc(-c4ccc(C(F)(F)F)cc4)c(Br)o3)c2F)cc1` [Example 23] displayed an MIC of 0.25 µg/mL (≈ 0.4 µM). For the compound `O=C(NC(c1ccccc1)N1CCOCC1)c1c(F)ccc(OCc2nc3cc(Cl)ccc3s2)c1F` (stereo not shown) [Example 28], the MIC was found to be 0.25 µg/mL (≈ 0.472 µM). Compound `Cc1nc(COc2ccc(F)c(C(=O)NCN3CCC(C)CC3)c2F)sc1-c1ccc(C(C)(C)C)cc1` [Example 21] returned a minimum inhibitory concentration (MIC) of 0.5 µg/mL (≈ 0.948 µM). The value for `CC(C)(C)NCNC(=O)c1c(F)ccc(OCc2nc3cc(Cl)ccc3s2)c1F` [Example 40] was 0.5 µg/mL (≈ 1.14 µM); that for `CN(CNC(=O)c1c(F)ccc(OCc2nc3cc(Cl)ccc3s2)c1F)Cc1ccc(C(F)(F)F)cc1` [Example 12] was 0.5 µg/mL (≈ 0.899 µM); that for `CN(C)/C=N/C(=O)c1c(F)ccc(O/C(=C/N(C)C)c2nc3cc(Cl)ccc3s2)c1F` [Example 45] was 32 µg/mL (≈ 68.8 µM).

Compound `COc1ccc(CN(C)CNC(=O)c2c(F)ccc(OCc3nc4cc(Cl)cnc4s3)c2F)cc1` [Example 11] returned a minimum inhibitory concentration (MIC) of 1 µg/mL (≈ 1.93 µM). Against the preceding compound, the MIC is about 32-fold lower. For the compound `Cc1nc(COc2ccc(F)c(C(=O)NCN(C)C)c2F)sc1-c1ccc(C(C)(C)C)cc1` [Example 34], the MIC is 0.125 µg/mL (≈ 0.264 µM). Regarding `O=C(NC(c1cccc(Br)c1)N1CCOCC1)c1c(F)ccc(OCc2nc3cc(Cl)ccc3s2)c1F` (stereo not shown) [Example 30], the MIC turned out to be 0.5 µg/mL (≈ 0.821 µM).

As for `Cc1nc(COc2ccc(F)c(C(=O)NCN(C)Cc3ccc(C(F)(F)F)cc3)c2F)sc1-c1ccc(C(C)(C)C)cc1` [Example 35], the MIC was above 64 µg/mL. For `CN1CCN(C(NC(=O)c2c(F)ccc(OCc3nc4cc(Cl)cnc4s3)c2F)c2ccccc2)CC1` (stereo not shown) [Example 32], the MIC worked out at 0.5 µg/mL (≈ 0.919 µM). As for `O=C(NCn1ccnc1)c1c(F)ccc(OCc2nc3cc(Cl)ccc3s2)c1F` [Example 2], the MIC was above 64 µg/mL. With `CN1CCN(C(NC(=O)c2c(F)ccc(OCc3nc4cc(Cl)ccc4s3)c2F)c2ccccc2)CC1` (stereo not shown) [Example 38] the figure was 8 µg/mL (≈ 14.7 µM); with `Cc1ccc(CN(C)CNC(=O)c2c(F)ccc(OC(C)c3nc(C)c(-c4ccc(C(C)(C)C)cc4)s3)c2F)cc1` (stereo not shown) [Example 20], 1 µg/mL (≈ 1.73 µM).

`COc1ccc(CN(C)CNC(=O)c2c(F)ccc(OCc3nc4cc(Cl)ccc4s3)c2F)cc1` [Example 10] had an MIC of 0.25 µg/mL (≈ 0.483 µM).

In turn, `CCN(CC)CNC(=O)c1c(F)ccc(OCc2nc3cc(Cl)ccc3s2)c1F` [Example 9] had an MIC of 0.125 µg/mL (≈ 0.284 µM). For the compound `CN1CCN(C(NC(=O)c2c(F)ccc(OCc3nc4cc(Cl)ccc4s3)c2F)c2cccc(Br)c2)CC1` (stereo not shown) [Example 31], the minimal inhibitory concentration (MIC) came to 0.5 µg/mL (≈ 0.804 µM). As to `CC1CCN(CNC(=O)c2c(F)ccc(OCc3nc4cc(Cl)ccc4s3)c2F)CC1` [Example 18], the minimum inhibitory concentration (MIC) was found to be 0.25 µg/mL (≈ 0.537 µM). The value for `O=C(NCNCc1ccccc1)c1c(F)ccc(OCc2nc3cc(Cl)ccc3s2)c1F` [Example 41] was 0.5 µg/mL (≈ 1.06 µM). `Cc1ccc(CN(C)CNC(=O)c2c(F)ccc(OCc3nc4cc(Cl)cnc4s3)c2F)cc1` [Example 15] had a minimum inhibitory concentration (MIC) of 0.5 µg/mL (≈ 0.994 µM). The value for `CCN(CC)CNC(=O)c1c(F)ccc(OCc2nc3cc(Cl)cnc3s2)c1F` [Example 16] was 0.5 µg/mL (≈ 1.13 µM); that for `CC1CCN(CNC(=O)c2c(F)ccc(OCc3nc4cc(Cl)cnc4s3)c2F)CC1` [Example 17] was 0.5 µg/mL (≈ 1.07 µM); that for `C#CCN(C)CNC(=O)c1c(F)ccc(OCc2nc3cc(Cl)ccc3s2)c1F` [Example 39] was 0.25 µg/mL (≈ 0.574 µM). `CN1CCN(CNC(=O)c2c(F)ccc(OCc3nc4cc(Cl)cnc4s3)c2F)CC1` [Example 8] registered an MIC of 2 µg/mL (≈ 4.27 µM). This MIC lies about 8-fold higher than the previous one.

With `CN(C)/C=N/C(=O)c1c(F)ccc(OCc2nc3cc(Cl)ccc3s2)c1F` [Example 3], the MIC was below 0.125 µg/mL. With `O=C(NC(c1ccccc1)N1CCOCC1)c1c(F)ccc(OCc2nc3cc(Cl)cnc3s2)c1F` (stereo not shown) [Example 29] the figure was 1 µg/mL (≈ 1.88 µM); with `Cc1ccc(CN(C)CNC(=O)c2c(F)ccc(OCc3nc4cc(Cl)ccc4s3)c2F)cc1` [Example 14], 0.25 µg/mL (≈ 0.498 µM).

Consider `CCN(CC)CNC(=O)c1c(F)ccc(OC(C)c2nc(C)c(-c3ccc(C(C)(C)C)cc3)s2)c1F` (stereo not shown) [Example 19], for which the minimum inhibitory concentration (MIC) was 1 µg/mL (≈ 1.94 µM).
